The text below walks through data of patent US20020183313A1, “1,4-benzodiazepinones and their uses as CCK antagonists” (Fujisawa Pharmaceutical Co., Ltd., priority 1996, published 2002).

Data set [1] has as its target T1, CCK-B (UniProt H0VZC5).
T1 construct: IC50 (nM) for CCK-B
T1 sequence (H0VZC5 1-426): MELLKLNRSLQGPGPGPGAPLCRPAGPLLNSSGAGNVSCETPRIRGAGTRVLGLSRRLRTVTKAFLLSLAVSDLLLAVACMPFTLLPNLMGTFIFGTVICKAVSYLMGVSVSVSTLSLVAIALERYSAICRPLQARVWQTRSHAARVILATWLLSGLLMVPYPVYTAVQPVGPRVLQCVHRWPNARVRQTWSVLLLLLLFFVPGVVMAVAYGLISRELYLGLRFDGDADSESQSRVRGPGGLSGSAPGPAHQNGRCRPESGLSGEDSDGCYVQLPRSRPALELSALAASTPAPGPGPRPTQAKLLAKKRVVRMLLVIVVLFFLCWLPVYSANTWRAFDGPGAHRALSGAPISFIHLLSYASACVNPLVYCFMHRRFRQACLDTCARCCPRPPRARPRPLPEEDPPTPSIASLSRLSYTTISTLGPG
Put plainly: Receptor binding studies, CCK-B. As to the method: (§1) Receptor binding studies and gastric emptying in mice
(§2) The tests were carried out in accordance with the method described at pages 571 to 572 in the following literature;
(§3) Harunobu Ito, Hajime Sogabe et al., The Journal of Pharmacology and Experimental Therapeutics, 571, No.2, Vol.268 (1994).

Data set [2] deals with CCK-B. Description: Receptor binding studies, CCK-B. The conditions noted are these: ratio IC50 CCK-A / IC50 CCK-B. As to the method:
as §1, §2, §3

The target of a further data set is T2, CCK-A (UniProt P30551).
T2 sequence (P30551 1-444): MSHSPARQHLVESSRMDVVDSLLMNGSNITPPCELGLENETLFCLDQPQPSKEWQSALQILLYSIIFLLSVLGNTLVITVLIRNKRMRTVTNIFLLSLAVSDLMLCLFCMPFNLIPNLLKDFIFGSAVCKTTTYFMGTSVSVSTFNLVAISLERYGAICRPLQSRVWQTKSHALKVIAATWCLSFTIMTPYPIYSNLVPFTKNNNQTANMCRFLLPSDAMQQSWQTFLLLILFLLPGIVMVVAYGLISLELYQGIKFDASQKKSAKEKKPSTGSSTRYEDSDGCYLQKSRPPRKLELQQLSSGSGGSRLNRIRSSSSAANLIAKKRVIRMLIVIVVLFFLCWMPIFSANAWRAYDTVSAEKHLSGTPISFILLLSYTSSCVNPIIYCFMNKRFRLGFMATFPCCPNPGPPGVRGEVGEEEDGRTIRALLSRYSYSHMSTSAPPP
Description: Receptor binding studies, CCK-A. As to the method: as §1, §2, §3

The next data set relates to mice. Description: Gastric emptying in mice. Type of data set: in vivo. How it is done:
as §1, §2, §3

By melting point is commonly meant the temperature of the solid-liquid transition. For orientation: IC50 means the concentration that inhibits the measured activity by half. The low end stands for greater potency, the high end for weaker potency. The compound `CCC1=NC(NC(=O)Nc2cccc(C)c2)C(=O)N(CC(=O)C2CCCCC2)c2c(C)cccc21` (racemic) [(B), N-[(3RS)-1-cyclohexylcarbonylmethyl-2,3-dihydro-5-ethyl-9-methyl-2-oxo-1H-1,4-benzodiazepin-3-yl]-N′-(3-methylphenyl)urea] showed a melting point of 161.2 to 164 °C. In addition, the IC50 on CCK-B [1] turned out to be 1.6 nM. Also, the “selectivity A/B” value in the data set with CCK-B [2] is 0.56. At CCK-A, this compound displayed a half-inhibitory concentration (IC50) of 0.9 nM. Besides, the “Gastric emptying ID50” value in the data set on mice was 0.4 mg/kg.
The corresponding values for `Cc1cccc(NC(=O)NC2N=C(C3CC3)c3cccc(C)c3N(CC(=O)C3CCCCC3)C2=O)c1` (racemic) [(D), N-[(3RS)-1-cyclohexylcarbonylmethyl-5-cyclopropyl-2,3-dihydro-9-methyl-2-oxo-1H-1,4-benzodiazepin-3-yl]-N′-(3-methylphenyl)urea] are 143.6 to 144.2 °C, 1.1 nM, 1.82, 2 nM and 1.8 mg/kg.
The like results for `CC1=NC(NC(=O)Nc2cccc(C)c2)C(=O)N(CC(=O)C2CCCCC2)c2c(C)cccc21` (racemic) [Compound (A), N-[(3RS)-1-cyclohexylcarbonylmethyl-2,3-dihydro-5,9-dimethyl-2-oxo-1H-1,4-benzodiazepin-3-yl]-N′-(3-methylphenyl)urea] were, in that order, 179.2 to 180.9 °C, 3.7 nM, 0.30, 1.1 nM and 0.4 mg/kg.
Take `CC(=O)CN1C(=O)C(NC(=O)Nc2cccc(C)c2)N=C(C)c2cccc(C)c21` (racemic) [Example 46, N-[(3RS)-2,3-Dihydro-5,9-dimethyl-1-methylcarbonylmethyl-2-oxo-1H-1,4-benzodiazepin-3-yl]-N′-(3-methylphenyl)urea]: the melting point is 126.1 to 127.7 °C.
The same measure, in the same setting: with `Cc1cccc2c1N(CC(=O)C1CC1)C(=O)C(NC(=O)Nc1cccc(-c3nnn[nH]3)c1)N=C2C1CCCCC1` (racemic) [Example 47, N-[(3RS)-5-Cyclohexyl-1-cyclopropylcarbonylmethyl-2,3-dihydro-9-methyl-2-oxo-1H-1,4-benzodiazepin-3-yl]-N′-[3-(tetrazol-5-yl)phenyl]urea] the figure was 227.1 to 233.2 °C; with `CCOC(=O)CN1C(=O)C(NC(=O)Nc2cccc(C)c2)N=C(C)c2cccc(C)c21` (racemic) [Example 48-1, N-[(3RS)-2,3-Dihydro-1-ethoxycarbonylmethyl-5,9-dimethyl-2-oxo-1H-1,4-benzodiazepin-3-yl]-N′-(3-methylphenyl)urea], 229.7 to 231 °C; with `Cc1cccc2c1N(Cc1c[nH]cn1)C(=O)C(NC(=O)Nc1cccc(-c3nnn[nH]3)c1)N=C2C1CCCCC1` (racemic) [Example 49, N-[(3RS)-5-Cyclohexyl-2,3-dihydro-1-(imidazol-4-yl)methyl-9-methyl-2-oxo-1H-1,4-benzodiazepin-3-yl]-N′-[3-(tetrazol-5-yl)phenyl]urea], 168.2 to 179.2 °C.
`CC(=O)c1ccccc1CN1C(=O)C(NC(=O)Nc2cccc(-c3nnn[nH]3)c2)N=C(C2CCCCC2)c2cccc(C)c21` (racemic) [Example 51, N-[(3RS)-1-(2-acetylbenzyl)-5-cyclohexyl-2,3-dihydro-9-methyl-2-oxo-1H-1,4-benzodiazepin-3-yl]-N′-[3-(tetrazol-5-yl)phenyl]urea] gave a melting point of 199 to 208 °C.
`Cc1cccc(NC(=O)NC2N=C(C3CCCCC3)c3cccc(C)c3N(CC(=O)C3CCCCC3)C2=O)c1` (racemic) [Example 54, N-[(3RS)-5-Cyclohexyl-1-cyclohexylcarbonylmethyl-2,3-dihydro-9-methyl-2-oxo-1H-1,4-benzodiazepin-3-yl]-N′-(3-methylphenyl)urea]: the melting point is 159.3 to 169.6 °C.
In turn, `CC1=NC(NC(=O)Nc2cccc(C)c2)C(=O)N(CC(=O)C2CCCCCC2)c2c(C)cccc21` (racemic) [Example 63, N-[(3RS)-1-Cycloheptylcarbonylmethyl-2,3-dihydro-5,9-dimethyl-2-oxo-1H-1,4-benzodiazepin-3-yl]-N′-(3-methylphenyl)urea] displayed a melting point of 171.3 to 174.6 °C.
In turn, `CC1=NC(NC(=O)Nc2cccc(C)c2)C(=O)N(CC(=O)C2CCCC2)c2c(C)cccc21` (racemic) [Example 65, N-[(3RS)-1-Cyclopentylcarbonylmethyl-2,3-dihydro-5,9-dimethyl-2-oxo-1H-1,4-benzodiazepin-3-yl]-N′-(3-methylphenyl)urea] gave a melting point of 150.1 to 155.5 °C.
Take `CCC1=NC(NC(=O)Nc2cccc(C)c2)C(=O)N(CC(=O)N2CCCCCCC2)c2c(C)cccc21` (racemic) [Example 66, N-[(3RS)-1-(Azacyclooctan-1-yl)carbonylmethyl-2,3-dihydro-5-ethyl-9-methyl-2-oxo-1H-1,4-benzodiazepin-3-yl]-N′-(3-methylphenyl)urea]: the melting point lay within 189 to 189.5 °C.
On the same count and under the same terms, with `Cc1cccc(NC(=O)NC2N=C(C(C)C)c3cccc(C)c3N(CC(=O)N3CCCCCCC3)C2=O)c1` (racemic) [Example 67, N-[(3RS)-1-(Azacyclooctan-1-yl)carbonylmethyl-2,3-dihydro-5-isopropyl-9-methyl-2-oxo-1H-1,4-benzodiazepin-3-yl]-N′-(3-methylphenyl)urea] the figure was 131.7 to 132.8 °C; with `Cc1cccc(NC(=O)NC2N=C(CC(C)C)c3cccc(C)c3N(CC(=O)N3CCCCCCC3)C2=O)c1` (racemic) [Example 69, N-[(3RS)-1-(Azacyclooctan-1-yl)carbonylmethyl-2,3-dihydro-5-isobutyl-9-methyl-2-oxo-1H-1,4-benzodiazepin-3-yl]-N′-(3-methylphenyl)urea], 131.6 to 133.4 °C.
For the compound `Cc1cccc(NC(=O)NC2N=C(C3CCCCC3)c3cccc(C)c3N(CC(=O)N3CCCCCCC3)C2=O)c1` (racemic) [Example 70, N-[(3RS)-1-(Azacyclooctan-1-yl)carbonylmethyl-5-cyclohexyl-2,3-dihydro-9-methyl-2-oxo-1H-1,4-benzodiazepin-3-yl]-N′-(3-methylphenyl)urea], the melting point lay in the range of 153.6 to 155.3 °C.
In turn, `Cc1cccc(NC(=O)NC2N=C(CO)c3cccc(C)c3N(CC(=O)N3CCCCCCC3)C2=O)c1` (racemic) [Example 71-2, N-[(3RS)-1-(Azacyclooctan-1-yl)carbonylmethyl-2,3-dihydro-5-hydroxymethyl-9-methyl-2-oxo-1H-1,4-benzodiazepin-3-yl]-N′-(3-methylphenyl)urea] showed a melting point of 214.5 to 216 °C.
On to `CC1=NC(NC(=O)Nc2cccc(C)c2)C(=O)N(CC(=O)C2CCCCCCC2)c2c(C)cccc21` (racemic) [Example 72, N-[(3RS)-1-Cyclooctylcarbonylmethyl-2,3-dihydro-5,9-dimethyl-2-oxo-1H-1,4-benzodiazepin-3-yl]-N′-(3-methylphenyl)urea], for which the melting point is 162.9 to 164.4 °C.
In the case of `Cc1cccc(NC(=O)NC2N=C(CC(C)C)c3cccc(C)c3N(CC(=O)C3CCCCC3)C2=O)c1` (racemic) [Example 73, N-[(3RS)-1-Cyclohexylcarbonylmethyl-2,3-dihydro-5-isobutyl-9-methyl-2-oxo-1H-1,4-benzodiazepin-3-yl]-N′-(3-methylphenyl)urea], the melting point was 152.3 to 154.8 °C.
For `CCC1=N[C@@H](NC(=O)Nc2cccc(C)c2)C(=O)N(CC(=O)C2CCCCC2)c2c(C)cccc21` [(C), N-[(3R)-1-cyclohexylcarbonylmethyl-5-ethyl-9-methyl-2-oxo-2,3-dihydro-1H-1,4-benzodiazepin-3-yl]-N′-(3-methylphenyl)urea], the IC50 at CCK-B [1] is 1 nM; at CCK-A, 0.3 nM. For the same compound, the “selectivity A/B” value in the data set with CCK-B [2] is given as 0.30. Moreover, in the data set with mice, the “Gastric emptying ID50” value was determined as 0.23 mg/kg.
